Results reported in patent US5378690A, “New renin-inhibitory oligopeptides, their preparation and their use” (Sankyo Company, Limited, priority 1986, dated 1995).

target: T1, human renin (Homo sapiens, UniProt P00797); test: Inhibition of renin activity; assay type: biochemical; conditions: 1×10^-6 M of the test compound, sheep angiotensinogen, pH 7.3, 10 minutes at 37° C., mean of 3 or 4 experiments
T1 sequence (P00797 67-406): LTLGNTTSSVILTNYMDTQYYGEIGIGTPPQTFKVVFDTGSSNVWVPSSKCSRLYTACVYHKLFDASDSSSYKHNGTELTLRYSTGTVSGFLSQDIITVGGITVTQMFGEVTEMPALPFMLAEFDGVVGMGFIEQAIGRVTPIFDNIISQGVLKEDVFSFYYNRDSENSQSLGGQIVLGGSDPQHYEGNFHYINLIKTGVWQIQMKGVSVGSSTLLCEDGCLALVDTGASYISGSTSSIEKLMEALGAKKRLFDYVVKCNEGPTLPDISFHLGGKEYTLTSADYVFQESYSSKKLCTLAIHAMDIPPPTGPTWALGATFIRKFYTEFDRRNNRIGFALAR
Procedure: The ability of various compounds of the invention to inhibit the activity of renin was determined according to the following method, which follows essentially the procedure of Kokubu et al. [Hypertension, 5, 191-197 (1983)].
Specifically, each test compound was dissolved in 60% v/v aqueous ethanol. Human renin activity in the presence and absence of each compound was measured using sheep angiotensinogen. The total volume of 1 ml of assay mixture contained 0.1 mole/litre phosphate buffer (pH 7.3), human renin (equivalent to 0.5 ng angiotensin I per ml per minute), sheep angiotensinogen (equivalent to 200 ng angiotensin I) 1×10^-6 M of the test compound, 6% v/v ethanol and angiotensinase inhibitors (10 mmole/litre sodium ethylenediaminetetraacetate and 3.4 mmole/litre 8-hydroxyquinoline). The mixture was allowed to react for 10 minutes at 37° C., and then the reaction was stopped by placing the reaction tube in a boiling water bath for 5 minutes. The mixture was then centrifuged and the supernatant (0.05-0.1 ml) was used to assay remaining angiotensin I.
An identical experiment was carried out, as a control, except that the test compound was omitted. From the values obtained were calculated the % inhibition of renin activity achieved by each test compound. The results are shown in the following Table 9, in which the compounds of the invention are identified by the numbers of the Examples given hereafter in which are described their preparation. The values given are the mean of 3 or 4 experiments.

Inhibitory Activity (%)	Compound
98.0%	CCCCNC(=O)C[C@H](O)[C@H](CC1CCCCC1)NC(=O)[C@H](Cc1cscn1)NC(=O)[C@H](Cc1cccc2ccccc12)NC(=O)CN(C)C1CCCCC1 [Example 112, N-{N-[N-(N-Cyclohexyl-N-methylaminoacetyl)-3-(1-naphthyl)-L-alanyl]-3-(4-thiazolyl)-L-alanyl}-cyclostatin-butylamide]
96.1%	N-{N-[N-(N-Benzyl-N-ethylaminoacetyl)-3-(1-naphthyl)-L-alanyl]-L-leucyl}-cyclostatin-(2-morpholinoethyl)amide [Example 69]
97.1%	N-{N-[N-(N-Benzyl-N-methylaminoacetyl)-3-(1-naphthyl)-L-alanyl]-L-tryptophyl}-cyclostatin-[3-(2-oxo-1-pyrrolidinyl)propyl]amide [Example 76]

More lines, now with the values behind:

Compound	Inhibitory Activity (%)
CCCCCCNC(=O)C[C@H](O)[C@H](CC1CCCCC1)NC(=O)[C@H](Cc1cscn1)NC(=O)[C@H](Cc1cccc2ccccc12)NC(=O)CN1CCOCC1 [Example 110, N-{N-[N-Morpholinoacetyl-3-(1-naphthyl)-L-alanyl]-3-(4-thiazolyl)-L-alanyl}-cyclostatin-hexylamide]	98.3%
CC(C)CCNC(=O)C[C@H](O)[C@H](CC1CCCCC1)NC(=O)[C@H](Cc1cscn1)NC(=O)[C@H](Cc1cccc2ccccc12)NC(=O)CN(C)Cc1ccccc1 [Example 111, N-{N-[N-(Benzyl-N-methylaminoacetyl)-3-(1-naphthyl)-L-alanyl]-3-(4-thiazolyl)-L-alanyl}-cyclostatin-isopentylamide]	96.0%
N-{N-[(2R)-2-(1-Naphthylmethyl)-3-thiomorpholinocarbonylpropionyl]-3-(4-thiazolyl)-DL-alanyl}-cyclostatin-(2-morpholinoethyl)amide [Example 9]	94.0%
